Measurements: patent publication US20100197765A1, “METHOD FOR PROMOTING THE EXPRESSION OF P53, AND P53 EXPRESSION PROMOTER FOR USE IN THE METHOD” (THE UNIVERSITY OF TOKUSHIMA, priority 2007, published 2010)

Columns and labels:
p53 = p53 mRNA (quantitative RT-PCR) and protein in HCT116 clones stably expressing vegf IresRNA, cisplatin treated; assay type: cell-based, human; conditions: mock HCT116 cells, cisplatin 5 μg/mL, 6 h, 12 h vs 0 h
Text: Full length cDNAs of vegf IresRNA having a sequence from base 600 to base 879 in 5′ UTR of vegf mRNA of SEQ ID NO. 1 were inserted into plasmid vectors pcDNA3.1 (Invitrogen). Thus, vegf IresRNA expression vectors (pcDNA-vegf Ires) were produced. These vegf IresRNA expression vectors (pcDNA-vegf Ires) were transfected into HCT116 (parent cells, wild-type p53), and two types of cell clones that stably overexpress vegf IresRNA were selected with an antibiotic G418. The thus-established two types of vegf IresRNA-expressing cells are hereinafter referred to as vegf Ires-#1 and vegf Ires-#2. Furthermore, as a mock treatment, plasmid vectors pcDNA3.1 lacking the above-described insert were transfected into HCT116 cells, and the transfect cell clones were selected with the antibiotic G418. These cell clones were hereinafter referred to as a mock. Then, expression of vegf IresRNA in these cell clones was examined by Northern blotting.
Subsequently, each of these vegf IresRNA-stably expressing cell strains was treated in the presence or absence of 5 μg/mL of an anticancer agent cisplatinin for a predetermined time (0, 6, 8, 12, 24 h). Thereafter, the expression level of p53 mRNA was analyzed by quantitative RT-PCR, and the expression level of p53 protein was analyzed by Western immunoblotting. […]

HCT116 cells = test: p53 mRNA, vegf IresRNA and vegf mRNA in HCT116 cells exposed to genotoxic stress (Northern); assay type: cell-based, human
Procedure: HCT116 cells (parent cells) were exposed to genotoxic stress that upregulates the expression of p53 mRNA. […] Also, HCT116 cells were exposed to UV-B for 1 minute. Then, after placing them under non-exposed conditions for a predetermined time (6, 12 hours), the expressions were examined in the same manner as in the above.

N.N.[Cl][Pt][Cl] [cisplatin]
expressions of p53 mRNA and p53 protein (p53): significant increase
expression of the p53 mRNA (HCT116 cells; HCT116, 5-FU 80 μmol/L, MMC 6 μg/ml or cisplatin 5 μg/ml, 0, 6, 12 hours): increased
expression of the vegf IresRNA (HCT116 cells; HCT116, cisplatin 5 μg/ml): decreased
